Measured values: US10053458B2, “Pyrimidine-2,4-diamine derivative and anticancer pharmaceutical composition comprising same as effective ingredient” (KOREA RESEARCH INSTITUTE OF CHEMICAL TECHNOLOGY, priority 2014, dated 2018)
Where a name gives a salt, the structure may show the parent alone. Read-outs that look alike come from different tables or passages of the source.

How the values were obtained:
H2228 = experiment: Cancer cell proliferation inhibition (SRB/MTS), H2228; details: read-out: H2228 GI50
Protocol: (§1) Cancer cell lines used in the experiments were all human-derived cancer cell lines, specifically H2228 and H3122, which are non-small cell lung cancer cell lines.
(§2) The cancer cell proliferation inhibition was measured using the MTS assay as follows. […] Each culture medium was placed in an incubator for 4 hours, taken out and left at room temperature for 10 minutes.

H3122 = experiment: Cancer cell proliferation inhibition (SRB/MTS), H3122; details: read-out: H3122 GI50
Protocol: as §1, §2

BaF3 EML4-ALK WT cells = experiment: Cytotoxicity on BaF3 cell transfected with EML4-ALK WT (WST-1); details: Ba/F3 EML4-ALK, 72 h, read-out: BaF3 EML4-ALK WT, IC50 of the cytotoxicity

| SMILES | GI50 (H2228; Homo sapiens, NCI-H2228, 72 h) | GI50 (H3122; Homo sapiens, NCI-H3122, 72 h) | IC50 (BaF3 EML4-ALK WT cells) | GI50 (H2228) | GI50 (H3122) | GI50 (H2228; hydrochloride) | GI50 (H3122; hydrochloride) |
| --- | --- | --- | --- | --- | --- | --- | --- |
| CCN1Cc2cc(Nc3ncc(Cl)c(Nc4ccccc4S(=O)(=O)C(C)C)n3)c(OC)cc2C(C)(C)C1 [Example 92, 5-chloro-N4-(2-(isopropylsulfonyl)phenyl)-N2-(2-ethyl-6-methoxy-4,4-trimethyl-1,2,3,4-tetrahydroisoquinolin-7-yl)pyrimidine-2,4-diamine] | < 50 nM | < 50 nM | < 50 nM | – | – | – | – |
| COc1cc2c(c(Cl)c1Nc1ncc(Cl)c(Nc3ccccc3S(=O)(=O)C(C)C)n1)CCNC2(C)C [Example 88, 5-chloro-N4-(2-(isopropylsulfonyl)phenyl)-N2-(5-chloro-7-methoxy-1,1-dimethyl-1,2,3,4-tetrahydroisoquinolin-6-yl)pyrimidine-2,4-diamine] | < 50 nM | < 50 nM | < 50 nM | – | – | – | – |
| COc1cc2c(cc1Nc1ncc(Cl)c(Nc3ccccc3S(=O)(=O)C(C)C)n1)C1CNCC(=O)N1CC2(C)C (stereo not drawn) [Example 85] | < 50 nM | < 50 nM | < 50 nM | – | – | – | – |
| COc1cc2c(cc1Nc1ncc(Cl)c(Nc3ccccc3S(=O)(=O)C(C)C)n1)CNC2(C)C [Example 106, 5-chloro-N4-(2-(isopropylsulfonyl)phenyl)-N2-(6-methoxy-1,1-dimethylisoindolin-5-yl)pyrimidine-2,4-diamine] | < 50 nM | < 50 nM | < 50 nM | – | – | – | – |
| CCC(C)Oc1cc2c(cc1Nc1ncc(Cl)c(Nc3ccccc3S(=O)(=O)C(C)C)n1)CCN(C(=O)C(F)(F)F)C2 (stereo not drawn) [Example 21] | < 50 nM | < 50 nM | < 50 nM | – | – | – | – |
| COc1cc2c(cc1Nc1ncc(Cl)c(Nc3ccccc3S(=O)(=O)C(C)C)n1)CNCC21CC1 [Example 96, 5-chloro-N4-(2-(isopropylsulfonyl)phenyl)-N2-(6-methoxy-2,3-dihydro-1H-spiro(cyclopropane-1,4-isoquinolin)-7-yl)pyrimidine-2,4-diamine] | < 50 nM | < 50 nM | < 50 nM | – | – | – | – |
| COc1cc2c(cc1Nc1ncc(Cl)c(Nc3ccccc3S(=O)(=O)C(C)C)n1)C1CNCC(=O)N1CC2 (stereo not drawn) [Example 97] | < 50 nM | < 50 nM | – | – | – | – | – |
| COc1cc2c(cc1Nc1ncc(Cl)c(Nc3ccccc3S(=O)(=O)C(C)C)n1)CNCC21CCCC1 [Example 83, 5-chloro-N4-(2-(isopropylsulfonyl)phenyl)-N2-(6-methoxy-2,3-dihydro-1H-spiro(cyclopentane-1,4-isoquinolin)-7-yl)pyrimidine-2,4-diamine] | < 50 nM | < 50 nM | < 50 nM | – | – | – | – |
| CC(C)Oc1cc2c(cc1Nc1ncc(Cl)c(Nc3ccccc3S(=O)(=O)C(C)C)n1)CNCC2(C)C [Example 80, 5-chloro-N4-(2-(isopropylsulfonyl)phenyl)-N2-(6-isopropoxy-4,4-dimethyl-1,2,3,4-tetrahydroisoquinolin-7-yl)pyrimidine-2,4-diamine] | < 50 nM | < 50 nM | < 50 nM | – | – | – | – |
| CCN1CCc2cc(Nc3ncc(Cl)c(Nc4ccccc4S(=O)(=O)C(C)C)n3)c(OC)cc2C1(C)C [Example 77, 5-chloro-N4-(2-(isopropylsulfonyl)phenyl)-N2-(2-ethyl-7-methoxy-1,1-dimethyl-1,2,3,4-tetrahydroisoquinolin-6-yl)pyrimidine-2,4-diamine] | < 50 nM | < 50 nM | < 50 nM | – | – | – | – |
| COc1cc2c(cc1Nc1ncc(Cl)c(Nc3ccccc3S(=O)(=O)C(C)C)n1)C(C)NCC2 (stereo not drawn) [Example 46] | < 50 nM | < 50 nM | < 50 nM | – | – | – | – |
| COc1cc2c(cc1Nc1ncc(Cl)c(Nc3ccccc3S(=O)(=O)C(C)C)n1)C(=O)NCC2 [Example 44] | < 50 nM | < 50 nM | < 50 nM | – | – | – | – |
| COc1cc2c(cc1Nc1ncc(Cl)c(Nc3ccccc3S(=O)(=O)C(C)C)n1)CCNCC2(C)C [Example 105, 5-chloro-N4-(2-(isopropylsulfonyl)phenyl)-N2-(8-methoxy-1,1-dimethyl-2,3,4,5-tetrahydro-1H-benzo[d]azepin-7-yl)pyrimidine-2,4-diamine] | < 50 nM | < 50 nM | < 50 nM | – | – | – | – |
| COc1cc2c(cc1Nc1ncc(Cl)c(Nc3ccccc3S(=O)(=O)C(C)C)n1)CN(C)CC2 [Example 35, 5-chloro-N4-(2-(isopropylsulfonyl)phenyl)-N2-(6-methoxy-2-methyl-1,2,3,4-tetrahydroisoquinolin-7-yl)pyrimidine-2,4-diamine] | < 50 nM | < 50 nM | – | – | – | – | – |
| COc1cc2c(cc1Nc1ncc(Cl)c(Nc3ccccc3S(=O)(=O)C(C)C)n1)CCNC2C(=O)O (stereo not drawn) [Example 76, 6-(5-chloro-4-(2-(isopropylsulfonyl)phenylamino)pyrimidin-2-yl)amino-7-methoxy-1,2,3,4-dihydroisoquinoline-1-carboxylic acid] | < 50 nM | < 50 nM | < 50 nM | – | – | – | – |
| COc1cc2c(cc1Nc1ncc(Cl)c(Nc3ccccc3S(=O)(=O)C(C)C)n1)CN(C(=O)CN(C)C)CC2(C)C [Example 94] | < 50 nM | < 50 nM | < 50 nM | – | – | – | – |
| COc1cc2c(cc1Nc1ncc(Cl)c(Nc3ccccc3S(=O)(=O)C(C)C)n1)C(C)(C)CNC2 [Example 12, 5-chloro-N4-(2-(isopropylsulfonyl)phenyl)-N2-(7-methoxy-4,4-dimethyl-1,2,3,4-tetrahydroisoquinolin-6-yl)pyrimidine-2,4-diamine] | < 50 nM | < 50 nM | < 50 nM | – | – | – | – |
| C[C@@H](Oc1cc(-c2cnn(C3CCNCC3)c2)cnc1N)c1c(Cl)ccc(F)c1Cl [Comparative Example 1, Crizotinib, reference compound] | 85 nM | 280 nM | – | – | – | – | – |
| COc1cc2c(cc1Nc1ncc(Cl)c(Nc3ccccc3S(=O)(=O)C(C)C)n1)CCNC2C (stereo not drawn) [Example 25] | < 50 nM | 8.9 nM | – | – | – | – | – |
| COc1cc2c(cc1Nc1ncc(Cl)c(Nc3ccccc3S(=O)(=O)C(C)C)n1)CCNC2(C)C [Example 33, 5-chloro-N4-(2-(isopropylsulfonyl)phenyl)-N2-(7-methoxy-1,1-dimethyl-1,2,3,4-tetrahydroisoquinolin-6-yl)pyrimidine-2,4-diamine] | – | – | – | 18 nM | 11 nM | – | – |
| CCC1NCCc2cc(Nc3ncc(Cl)c(Nc4ccccc4S(=O)(=O)C(C)C)n3)c(OC)cc21 (stereo not drawn) [Example 27] | < 50 nM | 8.4 nM | – | – | – | – | – |
| COc1cc2c(cc1Nc1ncc(Cl)c(Nc3ccccc3S(=O)(=O)C(C)C)n1)C1(CCCC1)CNC2 [Example 14, 5-chloro-N4-(2-(isopropylsulfonyl)phenyl)-N2-(7-methoxy-2,3-dihydro-1H-spiro[cyclopentane-1,4-isoquinoline]-6-yl)pyrimidine-2,4-diamine] | < 50 nM | < 50 nM | – | – | – | – | – |
| COc1cc2c(cc1Nc1ncc(Cl)c(Nc3ccccc3S(=O)(=O)C(C)C)n1)CCN1C(=O)CNCC21 (stereo not drawn) [Example 84] | < 50 nM | < 50 nM | – | – | – | – | – |
| COc1cc2c(cc1Nc1ncc(Cl)c(Nc3ccccc3S(=O)(=O)C(C)C)n1)CCNC2(C)C [Example 101, 5-chloro-N4-(2-(isopropylsulfonyl)phenyl)-N2-(7-methoxy-1,1-dimethyl-1,2,3,4-tetrahydroisoquinolin-6-yl)pyrimidine-2,4-diamine hydrochloride] | – | – | – | – | – | < 50 nM | < 50 nM |
